Data published in PMC3772838, “Preclinical Development of a Novel Class of CXCR4 Antagonist Impairing Solid Tumors Growth and Metastases” (PLoS ONE, 2013).
Bridges are numbered along the chain shown (N, C = ends). Where no end group is shown, it is not given here.

Experiments:
[1] = system: CXCR4; test: Competition with 12G5 anti-CXCR4 antibody binding (flow cytometry); parameters: species or system human; conditions: CCRF-CEM cells, 10 µM peptide, 30 min pre-incubation at 37°C, PE-labelled 12G5, flow cytometry; at least three experiments
Procedure: (§1) CXCR4 binding was evaluated as previously described. Briefly 5×10^5 CCRF–CEM cells were pre-incubated with 10 µM peptides or AMD3100 in binding buffer (PBS 1× plus 0.2% BSA and 0.1% NaN3) for 30 minutes at 37°C, 5% CO2 and then labeled for 30 minutes with anti-CXCR4 PE-antibody (FAB170P, clone 12G5, R&D Systems, Minneapolis, MN, USA). The cells were analyzed by FACS Canto II cytofluorometer (Becton Dickinson Immunocytometry Systems, Mountain View, CA, USA).
(A) The amount of peptides or AMD3100 bound was assessed indirectly by flow cytometry using the PE-labelled anti-CXCR4 antibody (clone 12G5). Results are expressed as the percent antibody bound. (B) The Ca^2+ influx assay was performed using CCRF-CEM cells and Fluo-3 AM calcium indicator. CCRF-CEM cells were incubated 30 minutes at 37°C with Fluo-3 AM and 15 minutes with AMD3100 (10 µM)/peptides (10 µM) and then treated with CXCL12. Results are expressed as the percent of Fluo-3 AM fluorescence in presence of CXCL12 alone. Each peptide was tested in at least three different experiments. Double tailed T-Test was used for statistical analyses. Differences were considered significant at P<0.05 compared to control. Control (CTRL).

[2] = system: CXCR7; test: Anti-CXCR7 antibody (clone 11G8) binding in CXCR7 overexpressing cells; parameters: species or system human; conditions: MCF-7 cells; peptides 10 µM, CXCL11 100 nM, 30 min pre-incubation; Figure S3
Procedure: [The procedure below names another target; the source says it served here with some conditions changed.] as §1
(§2) Fluo-3AM and Pluronic acid were added to each sample to increase Fluo-3AM solubility and improve dye loading into the cells. (TIF) Click here for additional data file.

[3] = system: B16-CXCR4 murine melanoma cells; test: B16-CXCR4 melanoma lung metastases model; format: in vivo, C57BL/6 mice; conditions: cells pre-treated 30 min with 10 µM, IP once a day for 10 days, peptides 2 mg/kg, AMD3100 1.25 mg/kg; for number of lung metastases: control 8.4±3.49, average
Procedure: (§3) All mice were obtained from Harlan (Bar Harbor, ME, USA) and their care was in accord with institutional guidelines. Twenty-five 6-8-week-old female C57BL/6 mice were inoculated into the tail vein with 5×10^5 B16–CXCR4 cells pre-treated for 30 minutes with peptide S (10 µM), peptide R (10 µM), peptide I (10 µM), or AMD3100 (10 µM). Six hours later intraperitoneal (IP) treatment started with AMD3100 (1.25 mg/kg) or each peptide (2 mg/kg) in sterile PBS once a day for 10 days. A week later the mice were sacrificed. The experiment was repeated three times. The lung metastases assay was also conducted with K7M2 murine osteosarcoma cells. Twenty-five 6-8-week-old female Balb/c mice were injected via tail vein with 2.5×10^5 K7M2 cells pre-treated for 30 minutes with AMD3100 (10 µM), peptide S (10 µM), peptide R (10 µM), peptide I (10 µM) and animals were treated IP daily for 15 days with 2.5 mg/kg for AMD3100 group and 10 mg/kg for each peptide groups. A week later the mice were sacrificed. Xenograft tumor growth was evaluated using pEGFP-SN12C cells in exponential growth phase subcutaneously injected into the right flank of twenty-five 6-8-week-old female CD1 nude mice. 2×10^6 SN12C-pEGFP were injected in the right flank of each mouse and treated with AMD3100 (1.25 mg/kg) and peptides (2 mg/kg) for 10 days ip. A week later mice were euthanized and tumor volume evaluated through Leica MacroFluo fluorescence stereomicroscope (Leica microsystem, Houston, TX). The experiment was repeated three times. The Istituto Nazionale per lo Studio e la Cura dei Tumori, Fondazione Giovanni Pascale Independent Etical Comettee approved the study (CEI/600/12).
(A) B16-CXCR4 tumor cells pre-treated for 30 minutes with AMD3100 (10 µM), peptide R (10 µM), peptide I (10 µM), or peptide S (10 µM) were inoculated into the tail vein of C57/B female mice and the mice were further treated intraperitoneally for 10 days with 1.25 mg/kg AMD3100, or 2 mg/kg peptide R, peptide I or peptide S. Gross examination of representative lungs; (B) Graphical representation of the number of lung metastases in treated mice. Double tailed T-Test was used for statistical analyses. The experiments were repeated three times.

[4] = system: K7M2 murine osteosarcoma cells; test: K7M2 osteosarcoma lung metastases model; format: in vivo, Balb/c mice; conditions: cells pre-treated 30 min with 10 µM peptide; 10 mg/kg IP daily for 15 days
Procedure: as §3
Figure 4 Peptides R, I and S inhibit murine osteosarcoma lung metastases. (A) Twenty-five 6-8-week-old female Balb/c mice were injected via tail vein with 2.5×10^5 K7M2 cells pre-treated for 30 minutes with AMD3100 (10 µM), peptide R (10 µM), or peptide I (10 µM) or peptide S (10 µM). […]

[5] = system: CXCR3; test: Anti-CXCR3 antibody (clone 1C6/CXCR3) binding in CXCR3 overexpressing cells; parameters: species or system human; conditions: COLO205 cells; peptides 10 µM, CXCL11 100 nM, 30 min pre-incubation; Figure S3
Procedure: [The procedure below names another target; the source says it served here with some conditions changed.] as §1, §2

[6] = system: PES43 human melanoma cells; test: CXCL12-mediated wound closure assay; format: cell-based; conditions: 6 hours post-wounding
Procedure: Migration was assayed in 24-well Transwell chambers (Corning Inc., Corning, NY) using inserts with an 8-µm pore membrane. Membranes were precoated with collagen (human collagen type I/III) and fibronectin (20 µg/mL each). […] After 16 h incubation, cells on the upper surface of the filter were removed using a cotton wool swab; migration of cells in migration media alone was compared with migration in media containing CXCL12. The cells were counted in ten different fields (original magnification ×40). The migration index was defined as the ratio between migrating cells in the experimental group and migrated cells in the control group. For the wound closure assay, tested cells were allowed to reach confluence in six-well plates containing serum-depleted growth medium and scratched with pipette tips to make wounds. The wound closure was observed microscopically 6 hours post-wounding (OKO Time Lapse).
Experiments were conducted using PES43 cells. (A) Migration was assayed in 24-well Transwell chambers using inserts with 8-µm pore membrane. […] Migrated cells on the lower surface were fixed, stained with H&E and counted microscopically. The results are expressed as the migration index relative to migration in presence of BSA alone. […] Images were acquired with OKO Time Lapse. […] PES43 cells were serum-starved and incubated with CXCL12 (100 ng/ml) alone or in presence of AMD3100/peptides. Each peptide was tested in at least three different experiments. Double tailed T-Test was used for statistical analyses. Differences were considered significant at P<0.05 compared to control.

“[Cys-Trp-His-Arg-Cys] (CWHRC; disulfide 1-5) [Peptide I, v-MIP-II mimetic disulfide-cyclic peptide]” was tested, and the “association of the 12G5-CXCR4 antibody to the receptor” value (from here on “association”) [1] was 45 % of control, the “binding to CXCR7 (anti-CXCR7 antibody)” value [2] was “unaffected” and the “fold reduction of the number of lung metastases vs control” value [3] was 41.5 fold. The “number of lung metastases” value [3] was 0.2±0.44, the K7M2 lung metastases [4] was “reduced lung metastases” and the “binding to CXCR3 (anti-CXCR3 antibody)” value [5] was “unaffected”. For the same substance, the CXCL12-mediated wound healing [6] was “delayed”.
For “Arg-Ala-[Cys-Arg-His-Trp-Cys] (RACRHWC; disulfide 3-7) [Peptide S, CXCL12-mimetic disulfide-cyclic peptide]”, the “association” value [1] was 17 % of control, the “binding to CXCR7 (anti-CXCR7 antibody)” value [2] was “unaffected” and the “number of lung metastases” value [3] was 2.96±2.39. For the same substance, the K7M2 lung metastases [4] was “reduced lung metastases”, the “binding to CXCR3 (anti-CXCR3 antibody)” value [5] was “unaffected” and the CXCL12-mediated wound healing [6] was “delayed”.
For “Arg-Ala-[Cys-Arg-Phe-Phe-Cys] (RACRFFC; disulfide 3-7) [Peptide R, CXCL12-mimetic disulfide-cyclic peptide]”, the “association” value [1] was 21 % of control, the “binding to CXCR7 (anti-CXCR7 antibody)” value [2] was “unaffected” and the “fold reduction of the number of lung metastases vs control” value [3] was 7 fold. For the same substance, the “number of lung metastases” value [3] was 1.2±1.4, the K7M2 lung metastases [4] was “reduced lung metastases” and the “binding to CXCR3 (anti-CXCR3 antibody)” value [5] was “unaffected”. The CXCL12-mediated wound healing [6] was “delayed”.
